Patent US7652020B2, “Compounds for the treatment of inflammatory disorders” (Schering Corporation, priority 2004, dated 2010)

target: T1, purified catalytic domain of recombinant human TACE (rhTACEc) (Homo sapiens, UniProt P78536, N452Q/S266A); experiment: TACE kinetic assay: cleavage of internally quenched peptide substrate SPDL-3, fluorescence; type: biochemical; settings: TACE inhibitory activity, class symbols; read-out: Ki
T1 construct: Residue 215 to 477 with two mutation (S266A and N452Q) and a 6×His tail; 6xHis (C); made in house; host or cells: baculovirus/Hi5 insect cells
T1 sequence (P78536 215-477 S266A/N452Q): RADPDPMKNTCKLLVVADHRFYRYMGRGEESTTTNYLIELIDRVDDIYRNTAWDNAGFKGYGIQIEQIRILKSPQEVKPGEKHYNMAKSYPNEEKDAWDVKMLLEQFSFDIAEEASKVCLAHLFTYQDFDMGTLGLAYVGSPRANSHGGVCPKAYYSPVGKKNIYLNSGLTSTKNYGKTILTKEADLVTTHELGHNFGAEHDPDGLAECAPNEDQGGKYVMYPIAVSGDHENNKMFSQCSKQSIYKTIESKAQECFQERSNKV
Procedure: TACE activity is determined by a kinetic assay measuring the rate of increase in fluorescent intensity generated by TACE catalyzed cleavage of an internally quenched peptide substrate (SPDL-3). […] It is purified from the baculovirus/Hi5 cells expression system using affinity chromatography. […] MCA is (7-Methoxycoumarin-4-yl)acetyl. Dpa is N-3-(2,4-Dinitrophenyl)-L-2,3-diaminopropionyl.
A 50 μl assay mixture contains 20 mM HEPES, pH 7.3, 5 mM CaCl2, 100 μM ZnCl2, 2% DMSO, 0.04% Methylcellulose, 30 μM SPDL-3, 70 pM rhTACEc and a test compound. RhTACEc is pre-incubated with the testing compound for 90 min. at 25° C. Reaction is started by addition of the substrate. […] Rate of enzymatic reaction is shown as Units per second. Effect of a test compound is shown as % of TACE activity in the absence of the compound.

Ki [nM]	Compound
20 to 100	C[C@@H](NC(=O)[C@H](O)[C@@H](O)C(=O)N1CC(C)(C)CC1(C)c1cccc(Cl)c1)c1ccc(-n2cccn2)cc1 (stereo partly drawn) [Compound 2238]
> 1000	C[C@@H](NC(=O)[C@H](O)[C@@H](O)C(=O)N1CC(C)(C)C[C@@]1(C)c1cccc(Cl)c1)c1ccc(-n2cccn2)cc1 [Compound 2239]
20 to 100	C[C@@H](NC(=O)[C@H](O)[C@@H](O)C(=O)N1CC(C)(C)C[C@]1(C)c1cccc(Cl)c1)c1ccc(-n2cccn2)cc1 [Compound 2240]
100 to 1000	C[C@@H](NC(=O)[C@H](O)[C@@H](O)C(=O)N1CC(C)(C)CC1(C)c1nccs1)c1ccc(-n2cccn2)cc1 (stereo partly drawn) [Compound 2241]
< 20	C[C@@H](NC(=O)[C@H](O)[C@@H](O)C(=O)N1CCC[C@@H]1c1ncccn1)c1ccc(-n2cccn2)cc1 [Compound 2242]
< 20	C[C@@H](NC(=O)[C@H](O)[C@@H](O)C(=O)N1CCCC1(C)c1csc(N)n1)c1ccc(-n2cccn2)cc1 (stereo partly drawn) [Compound 2243]
< 20	CNc1nc(C2(C)CCCN2C(=O)[C@H](O)[C@@H](O)C(=O)N[C@H](C)c2ccc(-n3cccn3)cc2)cs1 (stereo partly drawn) [Compound 2244]
< 20	CNc1nc([C@H]2C[C@H]3C[C@H]3N2C(=O)[C@H](O)[C@@H](O)C(=O)N[C@H](C)c2ccc(-n3cccn3)cc2)cs1 [Compound 2245]
20 to 100	CNc1nc([C@H]2C[C@@H]3C[C@@H]3N2C(=O)[C@H](O)[C@@H](O)C(=O)N[C@H](C)c2ccc(-n3cccn3)cc2)cs1 [Compound 2246]
< 20	C[C@@H](NC(=O)[C@H](O)[C@@H](O)C(=O)N1CCC[C@@H]1c1cc[nH]n1)c1ccc(-n2cccn2)cc1 [Compound 2247]
< 20	C[C@@H](NC(=O)[C@H](O)[C@@H](O)C(=O)N1CCC[C@@H]1c1ccn(C)n1)c1ccc(-n2cccn2)cc1 [Compound 2248]
< 20	CNc1nccc([C@H]2CCCN2C(=O)[C@H](O)[C@@H](O)C(=O)N[C@H](C)c2ccc(-n3cccn3)cc2)n1 [Compound 2249]
< 20	CNc1nc([C@H]2C=CCN2C(=O)[C@H](O)[C@@H](O)C(=O)N[C@H](C)c2ccc(-n3cccn3)cc2)cs1 [Compound 2250]
< 20	C[C@@H](NC(=O)[C@H](O)[C@@H](O)C(=O)N1CCCC1(C)c1nccs1)c1ccc(-n2cccn2)cc1 (stereo partly drawn) [Compound 2251]
< 20	CNc1nc([C@H]2CCCN2C(=O)[C@H](O)[C@@H](O)C(=O)N[C@H](C)c2ccc(-n3cccn3)cc2)cs1 [Compound 2252]
< 20	CNc1nc([C@H]2CCCN2C(=O)[C@H](O)[C@@H](O)C(=O)NCC2CCN(c3ccc(F)cc3C#N)CC2)cs1 [Compound 2253]
100 to 1000	C[C@@H](NC(=O)[C@H](O)[C@@H](O)C(=O)N1CC(C)(C)CC1(C)C)c1ccc(-n2cccn2)cc1 [Compound 2254]
< 20	C[C@@H](NC(=O)[C@H](O)[C@@H](O)C(=O)N1CCC[C@@H]1c1csc(N)n1)c1ccc(-n2cccn2)cc1 [Compound 2255]
< 20	CCNc1nc([C@H]2CCCN2C(=O)[C@H](O)[C@@H](O)C(=O)N[C@H](C)c2ccc(-n3cccn3)cc2)cs1 [Compound 2256]
< 20	CC(C)Nc1nc([C@H]2CCCN2C(=O)[C@H](O)[C@@H](O)C(=O)N[C@H](C)c2ccc(-n3cccn3)cc2)cs1 [Compound 2257]
20 to 100	C[C@@H](NC(=O)[C@H](O)[C@@H](O)C(=O)N1CCC[C@@H]1c1csc(N2CCCCC2)n1)c1ccc(-n2cccn2)cc1 [Compound 2258]
< 20	C[C@@H](NC(=O)[C@H](O)[C@@H](O)C(=O)N1CCC[C@@H]1c1csc(Nc2cccnc2)n1)c1ccc(-n2cccn2)cc1 [Compound 2259]
20 to 100	C[C@@H](NC(=O)[C@H](O)[C@@H](O)C(=O)N1CCC[C@@H]1c1csc(N(C)C)n1)c1ccc(-n2cccn2)cc1 [Compound 2260]
< 20	CC(=O)N(C)c1nc([C@H]2CCCN2C(=O)[C@H](O)[C@@H](O)C(=O)N[C@H](C)c2ccc(-n3cccn3)cc2)cs1 [Compound 2261]
